In the METLIN SMRT retention time set (Domingo-Almenara et al. 2019) one finds RP-LC retention time data, which are given here for 33 molecules.

This data set is described as follows: gradient 5% acetonitrile 3 min, to 50% in 2 min, to 85% in 15 min, held 3 min, 100 µL/min. The note with it: column: Zorbax Extend-C18 2.1 x 50 mm; eluents: water / acetonitrile, 0.1% formic acid. The essentials:
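Retention times of pure standards were taken from adduct peaks that were selected by computer and manually inspected. Over 3 months, mixtures of ~100 molecules were run by HPLC–quadrupole time-of-flight mass spectrometry in positive and negative ionization mode. The Zorbax Extend-C18 column (2.1 × 50 mm, 1.8 μm) ran at 100 μL/min in water and acetonitrile, each containing 0.1% formic acid, with 40 μL dead volume and 900 μL dwell volume.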
Regarding `CNC(=O)C1CN(C(=O)Nc2ccccc2C(F)(F)F)CC12CCCC2` (stereo not drawn), the RP-LC retention time was determined as 734 s.

On to `Cn1c(=O)c(C(=O)NC2CC2)nc2cccnc21`, for which the RP-LC retention time came out at 613 s.

For `O=S(=O)(c1cccs1)N1CCC(n2cnnc2-c2ccccc2)CC1`, the RP-LC retention time worked out at 744 s.

For the molecule `CCc1cccc(N2C=NS(=O)(=O)c3cccnc32)c1`, the RP-LC retention time was determined as 836 s.

Molecule `CN1C(=O)C(CC(=O)NCc2ccccn2)Sc2ncccc21` (stereo not drawn) registered an RP-LC retention time of 762 s.

Turning to `Cc1cc(-c2ccc3c(c2)CCN3C(=O)c2cccc(NC(=O)c3ccco3)c2)on1`, the RP-LC retention time turned out to be 841 s.

The molecule `CCC1CCCCN1C(=O)c1cnc2nc(C)ccc2c1Nc1ccc(OC)c(OC)c1` (stereo not drawn) returned an RP-LC retention time of 648 s.

The molecule `CCc1ccc(CNC(=O)C2CCN(Cc3cn(C)c4ccc(OC)cc34)CC2)cc1` displayed an RP-LC retention time of 749 s.

`CCCN1C(=O)COc2ccc(-c3noc(-c4ccc(N(C)C)cc4)n3)cc21` displayed an RP-LC retention time of 1280 s.

Molecule `CCN1C(=O)COc2ccc(-c3noc(Cc4ccc(OC)cc4)n3)cc21` yielded an RP-LC retention time of 1000 s.

`Cc1ccccc1C(=O)Nc1ccc(C(=O)N2CCCC(O)c3cc(Cl)ccc32)c(C)c1` (stereo not drawn): the RP-LC retention time turned out to be 899 s.

In turn, `CCN1C(=O)c2cccnc2Sc2cc(NC(=O)Cc3ccc(F)cc3)ccc21` registered an RP-LC retention time of 816 s.

As for `CC(C)n1cnc(S(=O)(=O)N2CCC(C(=O)Nc3ccccc3)CC2)c1`, the RP-LC retention time came to 748 s.

The molecule `CCOC(=O)C1CCCN(C(=O)Cn2ccc3ccc(-c4nnc(C)o4)cc32)C1` (stereo not drawn) came in with an RP-LC retention time of 785 s.

Regarding `COc1ccc(OC)c(CNC(=O)C2CCN(Cc3cn(C)c4ccc(Cl)cc34)CC2)c1`, the RP-LC retention time was found to be 717 s.

In turn, `CC1CCCCN1CCNC(=O)CCC(=O)N1CCc2c(c(C(=O)N3CCCCC3)nn2C)C1` (stereo not drawn) gave an RP-LC retention time of 585 s.

Turning to `O=C(NCCOc1ccc2c(c1)OCO2)c1ccccc1Cl`, the RP-LC retention time amounted to 785 s.

Molecule `CCc1nc2onc(C)c2c(=O)n1CC(=O)NCC(C)c1ccccc1` (stereo not drawn) came in with an RP-LC retention time of 832 s.

Molecule `Cc1ccc(-c2ccc(N3CCCC(C(=O)NCc4ccc(C(C)C)cc4)C3)nn2)cc1` (stereo not drawn) registered an RP-LC retention time of 889 s.

`O=C([C@@H]1C[C@H](F)CN1S(=O)(=O)c1ccc(F)c(Cl)c1)N1CCc2ccccc2C1` returned an RP-LC retention time of 997 s.

With `CCN(CC)CCSc1ccc(C(=O)N2CCN(c3ncccn3)CC2)cn1`, the RP-LC retention time came to 600 s.

On to `COc1cc(Cn2c(N)c(C#N)c3nc4ccccc4nc32)cc(OC)c1OC`, for which the RP-LC retention time came out at 720 s.

As for `CCN1CCCC1CNC(=O)c1nnc(Cc2cc(OC)c(OC)c(OC)c2)o1` (stereo not drawn), the RP-LC retention time was 586 s.

The molecule `O=C(CN1C(=O)c2cccnc2Sc2ccccc21)NCCc1c[nH]c2ccc(Cl)cc12` showed an RP-LC retention time of 817 s.

The molecule `O=C(NCc1ccccc1F)C1CCN(C(=O)c2ncn3c2COC(c2ccc(F)cc2)C3)CC1` (stereo not drawn) had an RP-LC retention time of 736 s.

Regarding `COCCNC(=O)C1CCCN(c2nccc(C)n2)C1` (stereo not drawn), the RP-LC retention time was 584 s.

Take `COc1ccc(S(=O)(=O)N2CCCC2)cc1C(=O)NC1CCS(=O)(=O)C1` (stereo not drawn): the RP-LC retention time is 629 s.

`Cc1[nH]c(C(=O)N2CCCC(C(=O)NC3CCCCC3)C2)c(C)c1C(=O)OC(C)C` (stereo not drawn): the RP-LC retention time was 861 s.

`Cc1noc(C)c1CNC(=O)c1ccc2c(c1)OCO2` gave an RP-LC retention time of 683 s.

The molecule `Cc1ccc(S(=O)(=O)N2CCCC2c2nc(-c3cccc(C(F)(F)F)c3)no2)cc1` (stereo not drawn) registered an RP-LC retention time of 1210 s.

`Cc1noc2nc(C)n(CC(=O)NCc3cccc(F)c3)c(=O)c12` had an RP-LC retention time of 740 s.

With `Cc1nc(-c2ccnc(N3CCCC3)c2)no1`, the RP-LC retention time worked out at 572 s.

The molecule `CC(C)CN1C(=O)CCc2cc(NS(=O)(=O)c3cccc(Cl)c3)ccc21` returned an RP-LC retention time of 932 s.
